Measured values taken from paper PMC6432887 (Drug Design, Development and Therapy, 2019).

Assays:
[1] = In vitro dissolution studies; type: physicochemical; conditions: phosphate buffer pH 6.8
[2] = Single-dose crossover bioavailability study, REP plasma levels by LC-MS/MS; type: in vivo, rabbits; conditions: male, albino, rabbit, po
[3] = cited from earlier work

CCOc1cc(CC(=O)N[C@@H](CC(C)C)c2ccccc2N2CCCCC2)ccc1C(=O)O [Plain REP, Repaglinide]
percentage drug released ([1]; optimized formulae, alginate film and plain drug, within 30 minutes): 22.981% | release rate ([1]; within 10 minutes): 8.166% | release rate ([1]; within 15 minutes): 19.65% | AUC(0-inf) [2]: 95400 ± 7220 ng·h/mL | AUC(0-t) [2]: 93400 ± 5610 ng·h/mL | Cmax [2]: 31900 ± 1620 ng/mL | Tmax [2]: 1 ± 0.143 h | half-life [2]: 78.6 ± 7.02 min | k el [2]: 0.000147 s⁻¹ | Biopharmaceutics Classification System (BCS) class [3]: class II
